Structures are written as SMILES.

The values below come from patent US20250215029A1 (Recludix Pharma, Inc., priority 2022, published 2025).

Test [1] addresses T1, Recombinant STAT3 protein (STAT3 (G127-I722)) (Homo sapiens, UniProt P40763).
T1 construct: Recombinant STAT3 protein (STAT3 (G127-I722))
In words: STAT3 Fluorescence Polarization (FP) Assay. In kind it is binding. Conditions: STAT3 (G127-I722) 25 nM, probe 5-FAM-GpYLPQTV-NH2 2 nM, 45-minute incubation; read-out: STAT3 (FP assay IC50 class). An outline of the steps:
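In this competition FP format, STAT3 residues G127-I722 (25 nM) and 2 nM 5-FAM-GpYLPQTV-NH2 met test compounds for 45 min at room temperature. IC50 values result from fitting mP signal against log concentration by nonlinear regression.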

Test [2] deals with T2, Recombinant STAT6 protein (STAT6 (W123-T658)) (Homo sapiens, UniProt P42226).
T2 construct: Recombinant STAT6 protein (STAT6 (W123-T658))
T2 sequence (P42226 123-658): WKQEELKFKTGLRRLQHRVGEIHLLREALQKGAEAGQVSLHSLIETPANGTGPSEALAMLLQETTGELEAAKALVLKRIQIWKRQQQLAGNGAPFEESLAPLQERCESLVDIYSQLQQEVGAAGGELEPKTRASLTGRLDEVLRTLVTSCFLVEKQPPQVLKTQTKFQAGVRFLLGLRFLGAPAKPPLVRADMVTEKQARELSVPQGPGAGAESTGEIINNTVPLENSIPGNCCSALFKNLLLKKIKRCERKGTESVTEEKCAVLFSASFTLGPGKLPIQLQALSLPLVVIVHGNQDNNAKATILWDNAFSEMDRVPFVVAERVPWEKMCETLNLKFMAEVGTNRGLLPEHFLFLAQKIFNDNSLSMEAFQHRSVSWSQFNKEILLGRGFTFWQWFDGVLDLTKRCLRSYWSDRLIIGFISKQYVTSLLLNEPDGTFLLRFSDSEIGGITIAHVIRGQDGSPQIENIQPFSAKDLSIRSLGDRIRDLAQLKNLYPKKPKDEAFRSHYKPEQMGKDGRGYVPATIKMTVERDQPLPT
In words: STAT6 Fluorescence Polarization (FP) Assay. The test is classed as binding. Conditions: STAT6 (W123-T658) 250 nM, probe 5-FAM-Ap[…]-NH2 2 nM, 45-minute incubation; read-out: STAT6 (FP assay IC50 class). A digest of the protocol:
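Protein-probe mix (250 nM STAT6 W123-T658, 2 nM 5-FAM-pTyr peptide) in 10 mM HEPES pH 7.4, 50 mM NaCl, 1 mM EDTA, 0.05% Tween 20, 2 mM DTT; added to compound dilution series, 1% DMSO final; 45 min RT; FP read; IC50 via nonlinear regression.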

T1 sequence (P40763 127-722): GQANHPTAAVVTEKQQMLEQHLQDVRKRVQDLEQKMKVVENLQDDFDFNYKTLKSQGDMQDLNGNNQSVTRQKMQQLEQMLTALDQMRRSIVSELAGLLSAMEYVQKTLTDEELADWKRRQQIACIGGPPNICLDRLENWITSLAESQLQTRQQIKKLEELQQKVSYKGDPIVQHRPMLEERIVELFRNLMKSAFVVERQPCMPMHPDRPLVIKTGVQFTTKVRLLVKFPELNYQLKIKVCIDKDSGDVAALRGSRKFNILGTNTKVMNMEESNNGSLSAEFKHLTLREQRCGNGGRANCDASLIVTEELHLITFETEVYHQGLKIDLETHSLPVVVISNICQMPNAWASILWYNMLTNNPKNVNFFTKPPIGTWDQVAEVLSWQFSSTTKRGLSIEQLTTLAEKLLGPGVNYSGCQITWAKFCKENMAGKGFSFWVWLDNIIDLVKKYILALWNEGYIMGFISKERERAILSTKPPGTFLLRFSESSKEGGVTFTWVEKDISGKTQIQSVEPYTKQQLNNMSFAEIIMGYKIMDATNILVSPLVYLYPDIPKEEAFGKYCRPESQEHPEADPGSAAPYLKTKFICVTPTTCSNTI

Usually IC50 stands for the concentration that inhibits the measured activity by half. For `NC(=O)N1C[C@H](NC(=O)[C@@H]2CC[C@@H]3CCCC[C@H](NC(=O)c4cc5cc(C(F)P(=O)(O)O)ccc5s4)C(=O)N32)[C@@H](F)C1` (stereo partly drawn) [Compound 558, ((2-(((3S,6S,10aS)-3-(((3S,4S)-1-carbamoyl-4-fluoropyrrolidin-3-yl)carbamoyl)-5-oxodecahydropyrrolo[1,2-a]azocin-6-yl)carbamoyl)benzo[b]thiophen-5-yl)fluoromethyl)phosphonic acid], the half-inhibitory concentration (IC50) was below 0.1 µM in test [1] and 0.3 to 3 µM in test [2].
The corresponding values for `O=C(N[C@H]1CCCC[C@H]2CC[C@@H](C(=O)N[C@@H]3CCN(c4ccn[nH]4)C3)N2C1=O)c1cc2cc(C(F)P(=O)(O)O)ccc2s1` (stereo partly drawn) [Compound 559, ((2-(((3S,6S,10aS)-3-(((R)-1-(1H-pyrazol-5-yl)pyrrolidin-3-yl)carbamoyl)-5-oxodecahydropyrrolo[1,2-a]azocin-6-yl)carbamoyl)benzo[b]thiophen-5-yl)fluoromethyl)phosphonic acid] are 1 to 10 µM and 0.3 to 3 µM.
`O=C(N[C@H]1CCC[C@H]2CC[C@@H](C(=O)N3CC(c4cc5cccnc5cc4F)C3)N2C1=O)c1cc2cc(C(F)P(=O)(O)O)ccc2s1` (stereo partly drawn) [Compound 560, (fluoro(2-(((3S,6S,9aS)-3-(3-(7-fluoroquinolin-6-yl)azetidine-1-carbonyl)-5-oxooctahydro-1H-pyrrolo[1,2-a]azepin-6-yl)carbamoyl)benzo[b]thiophen-5-yl)methyl)phosphonic acid]: the results for the half-maximal inhibitory concentration (IC50) in test [1] and in test [2] were 1 to 10 µM and 3 to 30 µM, respectively.
Taken in the same sequence, the figures for `O=C(N[C@H]1CCC[C@H]2CC[C@@H](C(=O)N3CC(c4cccnc4C(F)F)C3)N2C1=O)c1cc2cc(CP(=O)(O)O)ccc2s1` [Compound 562, ((2-(((3S,6S,9aS)-3-(3-(2-(difluoromethyl)pyridin-3-yl)azetidine-1-carbonyl)-5-oxooctahydro-1H-pyrrolo[1,2-a]azepin-6-yl)carbamoyl)benzo[b]thiophen-5-yl)methyl)phosphonic acid] were 0.1 to 1 µM and 3 to 30 µM.
For the molecule `O=C(N[C@H]1CCCC[C@H]2CC[C@@H](C(=O)N3CCC(c4ccccc4F)C3)N2C1=O)c1cc2cc(C(F)P(=O)(O)O)ccc2s1` (stereo partly drawn) [Compound 563, (fluoro(2-(((3S,6S,10aS)-3-(3-(2-fluorophenyl)pyrrolidine-1-carbonyl)-5-oxodecahydropyrrolo[1,2-a]azocin-6-yl)carbamoyl)benzo[b]thiophen-5-yl)methyl)phosphonic acid], the results for the half-maximal inhibitory concentration (IC50) in test [1] and in test [2] were 1 to 10 µM and 0.3 to 3 µM, respectively.
Take `O=C(N[C@H]1CCCC[C@H]2CC[C@@H](C(=O)N3CCC(c4cccnc4)CC3)N2C1=O)c1cc2cc(C(F)P(=O)(O)O)ccc2s1` (stereo partly drawn) [Compound 564, (fluoro(2-(((3S,6S,10aS)-5-oxo-3-(4-(pyridin-3-yl)piperidine-1-carbonyl)decahydropyrrolo[1,2-a]azocin-6-yl)carbamoyl)benzo[b]thiophen-5-yl)methyl)phosphonic acid]: the concentration for half-maximal inhibition (IC50) lay within 0.1 to 1 µM in test [1] and 3 to 30 µM in test [2].
Taken in the same sequence, the figures for `O=C(N[C@H]1CCC[C@H]2CC[C@@H](C(=O)N3CC(c4ccccc4F)C3)N2C1=O)c1cc2cc(C(F)P(=O)(O)O)ccc2s1` (stereo partly drawn) [Compound 565, (fluoro(2-(((3S,6S,9aS)-3-(3-(2-fluorophenyl)azetidine-1-carbonyl)-5-oxooctahydro-1H-pyrrolo[1,2-a]azepin-6-yl)carbamoyl)benzo[b]thiophen-5-yl)methyl)phosphonic acid] were 0.1 to 1 µM and 3 to 30 µM.
Consider `O=C(N[C@H]1CCCC[C@H]2CC[C@@H](C(=O)N3CC(c4cnccc4F)C3)N2C1=O)c1cc2cc(CP(=O)(O)O)ccc2s1` [Compound 566, ((2-(((3S,6S,10aS)-3-(3-(4-fluoropyridin-3-yl)azetidine-1-carbonyl)-5-oxodecahydropyrrolo[1,2-a]azocin-6-yl)carbamoyl)benzo[b]thiophen-5-yl)methyl)phosphonic acid], for which the values for the half-inhibitory concentration (IC50) in test [1] and in test [2] were below 0.1 µM and 3 to 30 µM, respectively.
The corresponding values for `COCC(=O)NC1(c2ccccn2)CN(C(=O)[C@@H]2CC[C@@H]3CCCC[C@H](NC(=O)c4cc5cc(C(F)P(=O)(O)O)ccc5s4)C(=O)N32)C1` (stereo partly drawn) [Compound 567, (fluoro(2-(((3S,6S,10aS)-3-(3-(2-methoxyacetamido)-3-(pyridin-2-yl)azetidine-1-carbonyl)-5-oxodecahydropyrrolo[1,2-a]azocin-6-yl)carbamoyl)benzo[b]thiophen-5-yl)methyl)phosphonic acid] are 0.1 to 1 µM and 3 to 30 µM.
Regarding `COCCNC1(c2ccccn2)CN(C(=O)[C@@H]2CC[C@@H]3CCCC[C@H](NC(=O)c4cc5cc(C(F)P(=O)(O)O)ccc5s4)C(=O)N32)C1` (stereo partly drawn) [Compound 568, (fluoro(2-(((3S,6S,10aS)-3-(3-((2-methoxyethyl)amino)-3-(pyridin-2-yl)azetidine-1-carbonyl)-5-oxodecahydropyrrolo[1,2-a]azocin-6-yl)carbamoyl)benzo[b]thiophen-5-yl)methyl)phosphonic acid], the IC50 in test [1] is below 0.1 µM; in test [2], 3 to 30 µM.
In the case of `Cn1ccc(N2C(=O)N(C(=O)[C@@H]3CC[C@@H]4CCCC[C@H](NC(=O)c5cc6cc(C(F)P(=O)(O)O)ccc6s5)C(=O)N43)C3(CC3)C2=O)cc1=O` (stereo partly drawn) [Compound 569, (fluoro(2-(((3S,6S,10aS)-3-(6-(1-methyl-2-oxo-1,2-dihydropyridin-4-y1)-5,7-dioxo-4,6-diazaspiro[2.4]heptane-4-carbonyl)-5-oxodecahydropyrrolo[1,2-a]azocin-6-yl)carbamoyl)benzo[b]thiophen-5-yl)methyl)phosphonic acid], the concentration for half-maximal inhibition (IC50) in test [1] was in the range of 1 to 10 µM; in test [2], 0.3 to 3 µM.
As for `O=C(N[C@H]1CCCC[C@H]2CC[C@@H](C(=O)N3CC(c4ccccc4)CC34CC4)N2C1=O)c1ccc2cnc(CP(=O)(O)O)cc2c1` (stereo partly drawn) [Compound 570, ((6-(((3S,6S,10aS)-5-oxo-3-(6-phenyl-4-azaspiro[2.4]heptane-4-carbonyl)decahydropyrrolo[1,2-a]azocin-6-yl)carbamoyl)isoquinolin-3-yl)methyl)phosphonic acid], the IC50 in test [1] is 1 to 10 µM; in test [2] it was 3 to 30 µM.
In the case of `O=C(N[C@H]1CCCC[C@H]2CC[C@@H](C(=O)N3CC(c4ccccc4)CC34CC4)N2C1=O)c1ccc2ccc(CP(=O)(O)O)nc2c1` (stereo partly drawn) [Compound 571, ((7-(((3S,6S,10aS)-5-oxo-3-(6-phenyl-4-azaspiro[2.4]heptane-4-carbonyl)decahydropyrrolo[1,2-a]azocin-6-yl)carbamoyl)quinolin-2-yl)methyl)phosphonic acid], the 50% inhibitory concentration (IC50) in test [1] was in the range of 1 to 10 µM; in test [2] it was 3 to 30 µM.
In the case of `O=C(N[C@H]1CCCC[C@H]2CC[C@@H](C(=O)N3C(=O)N(c4ccn(C(F)F)c(=O)c4)C(=O)C34CC4)N2C1=O)c1cc2cc(C(F)P(=O)(O)O)ccc2s1` (stereo partly drawn) [Compound 572, ((2-(((3S,6S,10aS)-3-(6-(1-(difluoromethyl)-2-oxo-1,2-dihydropyridin-4-yl)-5,7-dioxo-4,6-diazaspiro[2.4]heptane-4-carbonyl)-5-oxodecahydropyrrolo[1,2-a]azocin-6-yl)carbamoyl)benzo[b]thiophen-5-yl)fluoromethyl)phosphonic acid], the IC50 in test [1] fell in the range of 1 to 10 µM; in test [2], 0.3 to 3 µM.
For the molecule `O=C(N[C@H]1CCCC[C@H]2CC[C@@H](C(=O)N3CC(N4CCS(=O)(=O)CC4)C3)N2C1=O)c1cc2cc(C(F)P(=O)(O)O)ccc2s1` (stereo partly drawn) [Compound 573, ((2-(((3S,6S,10aS)-3-(3-(1,1-dioxidothiomorpholino)azetidine-1-carbonyl)-5-oxodecahydropyrrolo[1,2-a]azocin-6-yl)carbamoyl)benzo[b]thiophen-5-yl)fluoromethyl)phosphonic acid], the IC50 in test [1] was 0.1 to 1 µM; in test [2], 3 to 30 µM.
For the molecule `O=C(N[C@H]1CCC[C@H]2CC[C@@H](C(=O)N3CC(c4cccnc4)C3)N2C1=O)c1cc2cc(CP(=O)(O)O)ncc2s1` [Compound 574, ((2-(((3S,6S,9aS)-5-oxo-3-(3-(pyridin-3-yl)azetidine-1-carbonyl)octahydro-1H-pyrrolo[1,2-a]azepin-6-yl)carbamoyl)thieno[2,3-c]pyridin-5-yl)methyl)phosphonic acid], the IC50 in test [1] was 1 to 10 µM; in test [2] it was 3 to 30 µM.
